Laboratory results from US20250090507A1, “Methods of Treating Cancer With a B-RAF Inhibitor” (MapKure, LLC, priority 2022, published 2025).
Entries after “also recorded” stand apart in the source; their conditions may differ. Where two headings read alike, the source gives them in different places.

Assays:
[1] = Phase 1 study (NCT04249843): plasma pharmacokinetics of Compound A; assay type: in vivo, human; conditions: for Racc: accumulation ratio based on AUC8h; for Cmax / AUC(0-t) / Tmax: human, plasma, oral
Procedure: For a single-dose profile: AUC from zero to the last measurable concentration (AUClast), AUC from zero to infinity (AUC0-∞), maximum observed plasma concentration (Cmax), time to maximum observed plasma concentration (tmax), t1/2, apparent clearance, and apparent volume of distribution (Vz/F). In addition, AUClast,ss, AUCtau, Cmax,ss, and tmax, ss were calculated at steady state.
Pharmacokinetic assay: plasma samples were assayed for Compound A (or possible major metabolites) concentration with use of a validated chromatography method.
Pharmacokinetic data were analyzed using the PK Population. Compound A PK variables (i.e., AUClast, AUC0-∞, Cmax, Tmax, t1/2, apparent clearance and Vz/F) were calculated after single dosing in Phase 1a. In addition, AUClast, ss, AUCtau, Cmax,ss, and tmax,ss were calculated in Phase 1b. The PK parameters were calculated as appropriate using noncompartmental methods and summary statistics were provided. Compound A (or possible major metabolites) plasma concentration data and PK parameters were tabulated and summarized for Day 1 of Cycle 1, Day 1 of Cycle 2 and at steady state (Phase 1b). Descriptive statistics included means, medians, minimums, maximums, standard deviation, coefficient of variation (CV), geometric mean, and geometric CV as appropriate. Mean plasma concentrations were also plotted against time for each dose level. Additional PK analyses may be conducted as appropriate.
Tumor response: • 1 patient evaluable, 201-011: SD week 8. • Preliminary PK parameters and data are listed in Table 6. • Parameters listed as Mean (% CV) • Tmax reported as median (min, max) • Accumulation ratio Racc based on AUC8h • Patient 101-007 was excluded from C2D1 of cohort 2 (10 mg) due to dose reduction. • Patient 101-011 was excluded from summary statistics of CID1 of cohort 6 (60 mg) due to […] samples. • Patient 201-011 C2D1 parameters excluded from summary statistics of C2D1 of cohort 6 due to extended dose interruption.

Log P = assay type: physicochemical
[2] = 40 mg, 40 mg QD, C2D1, patient 202-012

For `O=C1CCc2c(Oc3ccc4c(c3)[C@H]3[C@H](NC(=O)Nc5cc(F)c(F)cc5F)[C@H]3O4)ccnc2N1` [Compound A, 1-((1S,1aS,6bS)-5-((7-oxo-5,6,7,8-tetrahydro-1,8-naphthyridin-4-yl)oxy)-1a,6b-dihydro-1H-cyclopropa[b]benzofuran-1-yl)-3-(2,4,5-trifluorophenyl)urea], the Racc ([1]; 5 mg QD, Mean (%CV)) was 17 (117%), the Racc ([1]; 10 mg QD, Mean (%CV)) was 6 (49%) and the Racc ([1]; 15 mg QD, Mean (%CV)) was 7 (60%). The Racc ([1]; 25 mg QD, Mean (%CV)) was 4 (23%), the Racc ([1]; 40 mg QD, Mean (%CV)) was 4 (23.5%) and the Racc ([1]; 40 mg QD, patient 101-010) was 4.05. It also gave a Racc ([1]; 40 mg QD, patient 102-012) of 4.06, a Racc ([1]; 40 mg QD, patient 201-010) of 5.43 and a Racc ([1]; 40 mg QD, patient 202-012) of 3.06. For the same molecule, the Racc ([1]; 60 mg QD, patient 101-011) was 6.7, the Racc ([1]; 60 mg QD, patient 201-011) was 5.7 and the “Dose proportionality of exposure” value ([1]; 5-60 mg QD, preliminary PK) was “generally increased dose-proportionally; also recorded: generally dose-proportional”. For the same molecule, the “Exposure across cohorts versus dose” value ([1]; cohorts up to 40 mg QD) was “generally proportional to the increase in the dose”, the Cmax ([1]; 5 mg, 5 mg QD, C2D1, Mean (%CV)) was 451 ng/mL and the AUC(0-t) ([1]; 5 mg, 5 mg QD, C2D1, Mean (%CV), read-out: AUC8 h) was 2660 ng·h/mL. For the same molecule, the Cmax ([1]; 5 mg, C1D1, Mean (%CV)) was 105 ng/mL, the AUC(0-t) ([1]; 5 mg, C1D1, Mean (%CV), read-out: AUC8 h) was 414 ng·h/mL and the AUC(0-t) ([1]; 5 mg, C1D1, Mean (%CV), read-out: AUC24 h) was 1380 ng·h/mL. For the same molecule, the Cmax ([1]; 10 mg, 10 mg QD, C2D1, Mean (%CV), patient 101-007 excluded) was 973 ng/mL, the AUC(0-t) ([1]; 10 mg, 10 mg QD, C2D1, Mean (%CV), patient 101-007 excluded, read-out: AUC8 h) was 5720 ng·h/mL and the Cmax ([1]; 10 mg, C1D1, Mean (%CV)) was 197 ng/mL. The AUC(0-t) ([1]; 10 mg, C1D1, Mean (%CV), read-out: AUC8 h) was 1060 ng·h/mL, the AUC(0-t) ([1]; 10 mg, C1D1, Mean (%CV), read-out: AUC24 h) was 3140 ng·h/mL and the Cmax ([1]; 15 mg, 15 mg QD, C2D1, Mean (%CV)) was 1660 ng/mL. It also gave an AUC(0-t) ([1]; 15 mg, 15 mg QD, C2D1, Mean (%CV), read-out: AUC8 h) of 9930 ng·h/mL, a Cmax ([1]; 15 mg, C1D1, Mean (%CV)) of 274 ng/mL and an AUC(0-t) ([1]; 15 mg, C1D1, Mean (%CV), read-out: AUC8 h) of 1530 ng·h/mL. For the same molecule, the AUC(0-t) ([1]; 15 mg, C1D1, Mean (%CV), read-out: AUC24 h) was 4780 ng·h/mL, the Cmax ([1]; 25 mg, 25 mg QD, C2D1, Mean (%CV)) was 2110 ng/mL and the AUC(0-t) ([1]; 25 mg, 25 mg QD, C2D1, Mean (%CV), read-out: AUC8 h) was 12300 ng·h/mL. The Cmax ([1]; 25 mg, C1D1, Mean (%CV)) was 593 ng/mL, the AUC(0-t) ([1]; 25 mg, C1D1, Mean (%CV), read-out: AUC8 h) was 3090 ng·h/mL and the AUC(0-t) ([1]; 25 mg, C1D1, Mean (%CV), read-out: AUC24 h) was 9170 ng·h/mL. The Cmax ([1]; 40 mg, 40 mg QD, C2D1, Mean (%CV)) was 2970 ng/mL, the AUC(0-t) ([1]; 40 mg, 40 mg QD, C2D1, Mean (%CV), read-out: AUC8 h) was 15700 ng·h/mL and the Cmax ([1]; 40 mg, 40 mg QD, C2D1, patient 101-010) was 3600 ng/mL. It also gave an AUC(0-t) ([1]; 40 mg, 40 mg QD, C2D1, patient 101-010, read-out: AUC8 h) of 15600 ng·h/mL, a Cmax ([1]; 40 mg, 40 mg QD, C2D1, patient 102-012) of 3550 ng/mL and an AUC(0-t) ([1]; 40 mg, 40 mg QD, C2D1, patient 102-012, read-out: AUC8 h) of 18300 ng·h/mL. The Cmax ([1]; 40 mg, 40 mg QD, C2D1, patient 201-010) was 2410 ng/mL, the AUC(0-t) ([1]; 40 mg, 40 mg QD, C2D1, patient 201-010, read-out: AUC8 h) was 13400 ng·h/mL and the Cmax [1, 2] was 2300 ng/mL. It also gave a Tmax [1, 2] of 3 h, an AUC(0-t) ([1]; 40 mg, 40 mg QD, C2D1, patient 202-012, read-out: AUC8 h) of 15400 ng·h/mL and a Cmax ([1]; 40 mg, C1D1, Mean (%CV)) of 698 ng/mL. For the same molecule, the AUC(0-t) ([1]; 40 mg, C1D1, Mean (%CV), read-out: AUC8 h) was 3960 ng·h/mL, the AUC(0-t) ([1]; 40 mg, C1D1, Mean (%CV), read-out: AUC24 h) was 12100 ng·h/mL and the Cmax ([1]; 40 mg, C1D1, patient 101-010) was 692 ng/mL. For the same molecule, the AUC(0-t) ([1]; 40 mg, C1D1, patient 101-010, read-out: AUC8 h) was 3850 ng·h/mL, the AUC(0-t) ([1]; 40 mg, C1D1, patient 101-010, read-out: AUC24 h) was 12000 ng·h/mL and the Cmax ([1]; 40 mg, C1D1, patient 102-012) was 789 ng/mL. It also gave an AUC(0-t) ([1]; 40 mg, C1D1, patient 102-012, read-out: AUC8 h) of 4510 ng·h/mL, an AUC(0-t) ([1]; 40 mg, C1D1, patient 102-012, read-out: AUC24 h) of 12300 ng·h/mL and a Cmax ([1]; 40 mg, C1D1, patient 201-010) of 415 ng/mL. It also gave an AUC(0-t) ([1]; 40 mg, C1D1, patient 201-010, read-out: AUC8 h) of 2470 ng·h/mL, an AUC(0-t) ([1]; 40 mg, C1D1, patient 201-010, read-out: AUC24 h) of 8460 ng·h/mL and a Cmax ([1]; 40 mg, C1D1, patient 202-012) of 896 ng/mL. The AUC(0-t) ([1]; 40 mg, C1D1, patient 202-012, read-out: AUC8 h) was 5040 ng·h/mL, the Cmax ([1]; 60 mg, 60 mg QD, C2D1, Mean row, patient 201-011 excluded) was 5330 ng/mL and the AUC(0-t) ([1]; 60 mg, 60 mg QD, C2D1, Mean row, patient 201-011 excluded, read-out: AUC8 h) was 37500 ng·h/mL. The Cmax ([1]; 60 mg, 60 mg QD, C2D1, patient 201-011 (excluded from C2D1 summary, extended dose interruption)) was 5230 ng/mL, the AUC(0-t) ([1]; 60 mg, 60 mg QD, C2D1, patient 201-011 (excluded from C2D1 summary, extended dose interruption), read-out: AUC8 h) was 31300 ng·h/mL and the Cmax ([1]; 60 mg, C1D1, Mean (%CV), patient 101-011 excluded) was 881 ng/mL. It also gave an AUC(0-t) ([1]; 60 mg, C1D1, Mean (%CV), patient 101-011 excluded, read-out: AUC8 h) of 4930 ng·h/mL, an AUC(0-t) ([1]; 60 mg, C1D1, Mean (%CV), patient 101-011 excluded, read-out: AUC24 h) of 15400 ng·h/mL and a Cmax ([1]; 60 mg, C1D1, patient 101-011 (excluded from C1D1 summary statistics, AQL samples)) of 878 ng/mL. The AUC(0-t) ([1]; 60 mg, C1D1, patient 101-011 (excluded from C1D1 summary statistics, AQL samples), read-out: AUC8 h) was 5630 ng·h/mL, the AUC(0-t) ([1]; 60 mg, C1D1, patient 101-011 (excluded from C1D1 summary statistics, AQL samples), read-out: AUC24 h) was 18900 ng·h/mL and the Cmax ([1]; 60 mg, C1D1, patient 201-011) was 957 ng/mL. It also gave an AUC(0-t) ([1]; 60 mg, C1D1, patient 201-011, read-out: AUC8 h) of 5510 ng·h/mL, an AUC(0-t) ([1]; 60 mg, C1D1, patient 201-011, read-out: AUC24 h) of 17600 ng·h/mL and a Cmax ([1]; 60 mg, C1D1, patient 202-014) of 804 ng/mL. The AUC(0-t) ([1]; 60 mg, C1D1, patient 202-014, read-out: AUC8 h) was 4340 ng·h/mL, the AUC(0-t) ([1]; 60 mg, C1D1, patient 202-014, read-out: AUC24 h) was 13100 ng·h/mL and the Tmax ([1]; 5 mg QD, C2D1, median (min, max)) was 1 h. For the same molecule, the Tmax ([1]; 40 mg QD, C2D1, median (min, max)) was 1.5 h, the Tmax ([1]; 60 mg QD, C2D1, patient 201-011 (excluded from C2D1 summary, extended dose interruption)) was 2 h and the Tmax ([1]; 5-60 mg QD, preliminary PK, overall) was ~2 h. The “average accumulation in exposure at steady-state” value ([1]; preliminary PK) was 7.4 fold, the terminal half-life ([1]; preliminary PK) was “long” and the logP (Log P) was > 4.46.
